Columns and labels:
Nucleic Acid = assay: Binding affinity for calf thymus DNA measured as change in melting temperature; format: nucleic-acid assay; details: Bos taurus
Pneumocystis carinii [1] = assay: Anti-P. carinii activity determined as change in number of Pneumocystis carinii trophozoites from day 1 through day 7 in culture at 1 uM; format: functional
Pneumocystis carinii [2] = assay: Percent of control growth of Pneumocystis carinii trophozoites was determined; format: functional; parameters: concentration or dose not given beside the values
[3] = Binding affinity for Poly (dA-dT) measured as change in melting temperature
Pneumocystis carinii [4] = assay: Anti-P. carinii activity determined as change in number of Pneumocystis carinii trophozoites from day 1 through day 5 in culture at 1 uM; format: functional

Structure (SMILES) | ΔTm (Nucleic Acid) [°C] | Change in No. of trophozoites x 10E-5 (Pneumocystis carinii [1]) | Growth (Pneumocystis carinii [2]) [%] | ΔTm [3] [°C] | Change in No. of trophozoites x 10E-5 (Pneumocystis carinii [4])
CCCCNC(=N)c1ccc(N2CCCN(c3ccc(C(=N)NCCCC)cc3)CC2)cc1 | 11.8 | 19.19 | 58 | 13.3 | 
N=C(N)c1ccc(N2CCCN(c3ccc(C(=N)N)cc3)CC2)cc1 | 15 |  | <0 | 23.1 | -3.32
CC(C)/N=C(\N)c1ccc(N2CCCN(c3ccc(/C(N)=N/C(C)C)cc3)CC2)cc1 | 13.8 | 20.2 | 61 | 20 | 
N=C(NCCCO)c1ccc(N2CCCN(c3ccc(/C(N)=N/CCCO)cc3)CC2)cc1 | 17.4 | 34.79 | 105 | 23.6 | 
N=C(NC1CCCC1)c1ccc(N2CCCN(c3ccc(C(=N)NC4CCCC4)cc3)CC2)cc1 | 17.9 | 34.32 | 103 | 26.5 | 
COc1cc(Cc2cnc(N)nc2N)cc(OC)c1OC.Cc1cc(NS(=O)(=O)c2ccc(N)cc2)no1 [CO-TRIMOXAZOLE] |  |  | <0 |  | 
c1cc(N2CCCN(c3ccc(C4=NCCCN4)cc3)CC2)ccc1C1=NCCCN1 | 15.5 | 10.73 | 32 | 21.3 | 
N=C(NCCO)c1ccc(N2CCCN(c3ccc(/C(N)=N/CCO)cc3)CC2)cc1 | 11.1 | 33.62 | 101 | 14.7 | 
N=C(N)c1ccc(OCCCCCOc2ccc(C(=N)N)cc2)cc1 [PENTAMIDINE] | 11.1 |  | <0 | 20.6 | -3.98
N=C(NC1CC1)c1ccc(N2CCCN(c3ccc(C(=N)NC4CC4)cc3)CC2)cc1 | 15.3 | 10.92 | 33 | 23.6 | 
CC(C)(C)/N=C(\N)c1ccc(N2CCCN(c3ccc(/C(N)=N/C(C)(C)C)cc3)CC2)cc1 | 4.1 | 21.57 | 65 | 7.4 | 
